Assay results taken from the CheMixHub viscosity set.
± gives the uncertainty stated by the source.

Test: xn = mol fraction of the nth substance listed

CC(=O)CC(C)(C)O + O
Settings | viscosity [mPa·s]
298.15 K, 101 kPa, x1 = 0.017 | 1.261 ± 0.033
298.15 K, 101 kPa, x2 = 0.2547 | 4.143 ± 0.11
298.15 K, 101 kPa, x2 = 0.4824 | 5.758 ± 0.15
298.15 K, 101 kPa, x2 = 0.6067 | 6.204 ± 0.17
298.15 K, 101 kPa, x2 = 0.7114 | 5.917 ± 0.16
298.15 K, 101 kPa, x2 = 0.776 | 5.315 ± 0.14
298.15 K, 101 kPa, x2 = 0.8342 | 4.609 ± 0.12
298.15 K, 101 kPa, x2 = 0.886 | 3.616 ± 0.095
298.15 K, 101 kPa, x2 = 0.9237 | 2.698 ± 0.07
298.15 K, 101 kPa, x2 = 0.9508 | 2.022 ± 0.053
298.15 K, 101 kPa, x2 = 0.9511 | 2.022 ± 0.053
298.15 K, 101 kPa, x2 = 0.9717 | 1.516 ± 0.039
303.15 K, 100 kPa, x2 = 0.1 | 2.81 ± 0.067
303.15 K, 100 kPa, x2 = 0.2 | 3.27 ± 0.079
303.15 K, 100 kPa, x2 = 0.3 | 3.65 ± 0.089
303.15 K, 100 kPa, x2 = 0.4 | 4.15 ± 0.1
303.15 K, 100 kPa, x2 = 0.5 | 4.55 ± 0.11
303.15 K, 100 kPa, x2 = 0.6 | 4.71 ± 0.12
303.15 K, 100 kPa, x2 = 0.7 | 4.57 ± 0.11
303.15 K, 100 kPa, x2 = 0.8 | 4.08 ± 0.096
303.15 K, 100 kPa, x2 = 0.9 | 2.6 ± 0.062
323.15 K, 100 kPa, x2 = 0.1 | 1.69 ± 0.042
323.15 K, 100 kPa, x2 = 0.2 | 1.82 ± 0.047
323.15 K, 100 kPa, x2 = 0.3 | 2.06 ± 0.054
323.15 K, 100 kPa, x2 = 0.4 | 2.1 ± 0.058
323.15 K, 100 kPa, x2 = 0.5 | 2.3 ± 0.063
323.15 K, 100 kPa, x2 = 0.6 | 2.32 ± 0.065
323.15 K, 100 kPa, x2 = 0.7 | 2.31 ± 0.063
323.15 K, 100 kPa, x2 = 0.8 | 2.09 ± 0.057
323.15 K, 100 kPa, x2 = 0.9 | 1.48 ± 0.038

CC(=O)O.NCCO + O
viscosity [mPa·s], 101 kPa
Settings | x1 = 0.0075 | x1 = 0.0163 | x2 = 0.8718 | x2 = 0.9099 | x2 = 0.9403 | x2 = 0.9641 | x2 = 0.9743
293.15 K | 1.308 ± 0.064 | 1.512 ± 0.073 | 7.458 ± 0.39 | 4.47 ± 0.27 | 2.88 ± 0.16 | 2.01 ± 0.1 | 1.71 ± 0.087
298.15 K | 1.17 ± 0.057 | 1.344 ± 0.065 | 6.312 ± 0.33 | 3.84 ± 0.2 | 2.513 ± 0.13 | 1.788 ± 0.089 | 1.512 ± 0.075
303.15 K | 1.05 ± 0.053 | 1.218 ± 0.059 | 5.448 ± 0.29 | 3.354 ± 0.15 | 2.232 ± 0.1 | 1.584 ± 0.079 | 1.35 ± 0.064

CCC(N)=O + O
298.15 K, 101 kPa
Settings | viscosity [mPa·s]
x1 = 0.003097 | 0.919 ± 0.18
x1 = 0.0145 | 1.025 ± 0.2
x1 = 0.03165 | 1.188 ± 0.24
x1 = 0.06563 | 1.536 ± 0.31
x1 = 0.1487 | 3.03 ± 0.61
x1 = 0.3724 | 5.98 ± 1.2

CCCCCCCCCCCCCC[P+](CCCCCC)(CCCCCC)CCCCCC.c1ccc2[n-]nnc2c1 + O
Settings | viscosity [mPa·s]
298.15 K, 100 kPa, x2 = 0.728 | 181 ± 6

CCCCCCCO + O
Settings | viscosity [mPa·s]
298.15 K, 101 kPa, x2 = 0.28 | 5.5 ± 0.15

CCC[NH2+]CCO.O=C([O-])c1ccccc1O + O
100 kPa, x2 = 0.14
Settings | viscosity [mPa·s]
298 K | 376.1 ± 16
303 K | 261.8 ± 11
313 K | 136.8 ± 5
323 K | 78.08 ± 2.7

CCN(CC)CCO + O
Settings | viscosity [mPa·s]
293.15 K, 101 kPa, x1 = 0.062 | 4.536 ± 0.025
298.15 K, 101 kPa, x1 = 0.062 | 3.689 ± 0.023
298.15 K, 101.33 kPa, x1 = 0.0039 | 0.991 ± 0.025
298.15 K, 101.33 kPa, x1 = 0.008 | 1.104 ± 0.028
298.15 K, 101.33 kPa, x1 = 0.0121 | 1.233 ± 0.03
298.15 K, 101.33 kPa, x1 = 0.0169 | 1.4 ± 0.034
298.15 K, 101.33 kPa, x1 = 0.0261 | 1.752 ± 0.042
298.15 K, 101.33 kPa, x1 = 0.0372 | 2.242 ± 0.053
298.15 K, 101.33 kPa, x1 = 0.0602 | 3.439 ± 0.079
298.15 K, 101.33 kPa, x1 = 0.0909 | 5.404 ± 0.12
298.15 K, 101.33 kPa, x1 = 0.1326 | 8.287 ± 0.17
298.15 K, 101.33 kPa, x1 = 0.1883 | 11.72 ± 0.22
298.15 K, 101.33 kPa, x1 = 0.3136 | 15.25 ± 0.28
298.15 K, 101.33 kPa, x1 = 0.4547 | 14.14 ± 0.26
298.15 K, 101.33 kPa, x1 = 0.5001 | 13.45 ± 0.23
298.15 K, 101.33 kPa, x1 = 0.6638 | 9.491 ± 0.18
298.15 K, 101.33 kPa, x1 = 0.758 | 6.903 ± 0.14
298.15 K, 101.33 kPa, x1 = 0.8765 | 5.478 ± 0.12
298.15 K, 101.33 kPa, x1 = 0.9544 | 4.484 ± 0.1
303.15 K, 100 kPa, x1 = 0.06181 | 3 ± 0.06
303.15 K, 100 kPa, x1 = 0.09296 | 4.51 ± 0.09
303.15 K, 101 kPa, x1 = 0.02641 | 1.53 ± 0.03
303.15 K, 101 kPa, x1 = 0.062 | 3.048 ± 0.021
303.15 K, 101 kPa, x1 = 0.1117 | 5.23 ± 0.11
303.15 K, 101.33 kPa, x1 = 0.0039 | 0.885 ± 0.023
303.15 K, 101.33 kPa, x1 = 0.008 | 0.98 ± 0.025
303.15 K, 101.33 kPa, x1 = 0.0121 | 1.085 ± 0.027
303.15 K, 101.33 kPa, x1 = 0.0169 | 1.219 ± 0.03
303.15 K, 101.33 kPa, x1 = 0.0261 | 1.495 ± 0.036
303.15 K, 101.33 kPa, x1 = 0.0372 | 1.887 ± 0.045
303.15 K, 101.33 kPa, x1 = 0.0602 | 2.82 ± 0.065
303.15 K, 101.33 kPa, x1 = 0.0909 | 4.364 ± 0.098
303.15 K, 101.33 kPa, x1 = 0.1326 | 6.361 ± 0.13
303.15 K, 101.33 kPa, x1 = 0.1883 | 8.984 ± 0.18
303.15 K, 101.33 kPa, x1 = 0.3789 | 11.36 ± 0.22
303.15 K, 101.33 kPa, x1 = 0.5883 | 8.745 ± 0.17
303.15 K, 101.33 kPa, x1 = 0.6638 | 7.615 ± 0.15
303.15 K, 101.33 kPa, x1 = 0.758 | 5.577 ± 0.12
303.15 K, 101.33 kPa, x1 = 0.8765 | 4.459 ± 0.1
303.15 K, 101.33 kPa, x1 = 0.9544 | 3.65 ± 0.083
308.15 K, 101 kPa, x1 = 0.062 | 2.552 ± 0.02
313.15 K, 100 kPa, x1 = 0.06181 | 2.13 ± 0.04
313.15 K, 100 kPa, x1 = 0.09296 | 3.08 ± 0.06
313.15 K, 101 kPa, x1 = 0.02641 | 1.18 ± 0.03
313.15 K, 101 kPa, x1 = 0.06181 | 2.07 ± 0.04
313.15 K, 101 kPa, x1 = 0.062 | 2.165 ± 0.019
313.15 K, 101 kPa, x1 = 0.1117 | 3.5 ± 0.07
313.15 K, 101.33 kPa, x1 = 0.0039 | 0.723 ± 0.019
313.15 K, 101.33 kPa, x1 = 0.008 | 0.791 ± 0.021
313.15 K, 101.33 kPa, x1 = 0.0121 | 0.866 ± 0.022
313.15 K, 101.33 kPa, x1 = 0.0169 | 0.958 ± 0.024
313.15 K, 101.33 kPa, x1 = 0.0261 | 1.149 ± 0.028
313.15 K, 101.33 kPa, x1 = 0.0372 | 1.412 ± 0.034
313.15 K, 101.33 kPa, x1 = 0.0602 | 2.016 ± 0.048
313.15 K, 101.33 kPa, x1 = 0.0909 | 2.912 ± 0.067
313.15 K, 101.33 kPa, x1 = 0.1326 | 4.179 ± 0.094
313.15 K, 101.33 kPa, x1 = 0.1883 | 5.497 ± 0.12
313.15 K, 101.33 kPa, x1 = 0.2629 | 6.627 ± 0.14
313.15 K, 101.33 kPa, x1 = 0.3136 | 7.004 ± 0.14
313.15 K, 101.33 kPa, x1 = 0.3789 | 7.054 ± 0.14
313.15 K, 101.33 kPa, x1 = 0.4547 | 6.685 ± 0.14
313.15 K, 101.33 kPa, x1 = 0.6638 | 4.668 ± 0.11
313.15 K, 101.33 kPa, x1 = 0.758 | 3.694 ± 0.084
313.15 K, 101.33 kPa, x1 = 0.8765 | 3.059 ± 0.07
313.15 K, 101.33 kPa, x1 = 0.9544 | 2.639 ± 0.061
318.15 K, 101 kPa, x1 = 0.062 | 1.86 ± 0.019
323.15 K, 100 kPa, x1 = 0.06181 | 1.6 ± 0.03
323.15 K, 101 kPa, x1 = 0.02641 | 0.93 ± 0.02
323.15 K, 101 kPa, x1 = 0.06181 | 1.55 ± 0.03
323.15 K, 101 kPa, x1 = 0.062 | 1.617 ± 0.018
323.15 K, 101 kPa, x1 = 0.1117 | 2.51 ± 0.05

CC[C@@H](CO)NCCN[C@@H](CC)CO.Cl.Cl + O
298.15 K, 100 kPa
Settings | viscosity [mPa·s]
x1 = 9.47e-06 | 0.8977 ± 0.019
x1 = 1.925e-05 | 0.8983 ± 0.019
x1 = 3.721e-05 | 0.8987 ± 0.019
x1 = 9.087e-05 | 0.9011 ± 0.019
x1 = 0.0001804 | 0.9029 ± 0.019
x1 = 0.000898 | 0.9213 ± 0.019
x1 = 0.001796 | 0.9443 ± 0.02

NCCCC[C@H](N)C(=O)O + O
viscosity [mPa·s], 101 kPa
Settings | 293.15 K | 298.15 K | 303.15 K | 308.15 K | 313.15 K
x1 = 0.006 | 1.261 ± 0.12 | 1.129 ± 0.12 | 1.016 ± 0.12 | 0.9447 ± 0.12 | 0.8984 ± 0.12
x1 = 0.014 | 1.324 ± 0.12 | 1.194 ± 0.12 | 1.079 ± 0.12 | 1.013 ± 0.12 | 0.9598 ± 0.12
